Legend:
[1] = Plasma concentration in guinea pig at 10 mg/kg; format: ADME, organism-based, Cavia porcellus; set-up: dose 10 mg/kg; conditions: in vivo
[2] = system: Plasma; assay: Plasma concentration in thioglycolate-induced peritoneal leukocyte infiltration in human CCR2 knock-in mouse model at 1 mg/kg, po; format: ADME, organism-based; set-up: dose 1 mg/kg, route oral; conditions: in vivo
[3] = buffer
[4] = human, microsomes
[5] = rat, microsomes
[6] = species: Rattus norvegicus; conditions: in vivo, iv, 2 mg/kg
[7] = in vivo; conditions: rat
[8] = in vivo; conditions: rat, po, 10 mg/kg
[9] = in vivo; conditions: rat, plasma
[10] = in vivo; conditions: rat, iv, 2 mg/kg
[11] = in vivo; conditions: rat, po, 10 mg/kg; remark: listed apart in the source

Row | concentration [1] | concentration [2] | solubility [3] | Stability [4] | Stability [5] | CL [6] | half-life [7] | Cmax [8] | AUC(0-t) [9] | Vd [10] | bioavailability [11] | Compound
1 | 23 µM | 0.097 µM | soluble | Stable | Stable | 15.6 mL/mg/kg | 3.8 h | 2.2 µg/mL | 9.76 µg·h/mL | 3.2 L/kg | 94% | CO[C@@H]1COCC[C@@H]1N[C@@H]1C[C@H]2OCC[C@@]2(C(=O)N2CCc3ncc(C(F)(F)F)cc3C2)C1
2 | 18 µM | 0.098 µM | soluble | Stable | Stable | 43.2 mL/mg/kg | 3.5 h | 0.632 µg/mL | 3.54 µg·h/mL | 5 L/kg | 91% | CO[C@H]1COCC[C@H]1N[C@@H]1C[C@H]2OCC[C@@]2(C(=O)N2CCc3ncc(C(F)(F)F)cc3C2)C1

— ChEMBL document CHEMBL3259669, “The discovery and SAR of cyclopenta[b]furans as inhibitors of CCR2” (Bioorg Med Chem Lett, 2014)
